Measured values from US20110319396A1, “BENZODIAZEPIN-2-ON DERIVATIVES” (MSD K.K., priority 2009, published 2011).

Biological target: T1, Human DGAT1 (Homo sapiens, UniProt O75907)
T1 construct: made in house; host or cells: Pichia pastoris (printed 'Pichia pastris'), vector pPICZA, membrane fraction
T1 sequence (O75907 1-488): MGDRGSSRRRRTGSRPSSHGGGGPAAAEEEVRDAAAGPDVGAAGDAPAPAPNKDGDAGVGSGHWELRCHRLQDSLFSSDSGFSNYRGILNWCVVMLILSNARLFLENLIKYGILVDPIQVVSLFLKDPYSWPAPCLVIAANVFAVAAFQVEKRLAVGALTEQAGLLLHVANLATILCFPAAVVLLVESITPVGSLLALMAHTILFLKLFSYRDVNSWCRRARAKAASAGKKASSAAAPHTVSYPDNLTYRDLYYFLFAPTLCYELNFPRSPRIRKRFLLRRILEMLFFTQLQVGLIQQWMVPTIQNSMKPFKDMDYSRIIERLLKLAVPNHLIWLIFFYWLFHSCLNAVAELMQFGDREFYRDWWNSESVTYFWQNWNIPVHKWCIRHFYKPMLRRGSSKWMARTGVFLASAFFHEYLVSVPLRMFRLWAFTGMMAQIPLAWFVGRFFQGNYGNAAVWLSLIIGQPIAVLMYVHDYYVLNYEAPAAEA
Test: DGAT1 Inhibitory Activity Test
Assay type: biochemical
Conditions: DGAT1-expressed yeast membrane fraction as enzyme source; 40 μM Dioelin, 15 μM [14C]-oleoyl-CoA; room temperature for 30 minutes
Procedure: Human DGAT1 genes were amplified by PCR using primers described below from human cDNA library (Clontech).
The amplified human DGAT1 genes were introduced into a yeast expression vector pPICZA (Invitrogen). The resultant expression plasmid was introduced into an yeast (Pichia pastris) by electroporation to produce a recombinant yeast. The recombinant yeast was cultured in the presence of 0.5% methanol for 72 hours, and the cells were crushed using glass beads in 10 mM Tris pH 7.5, 250 mM sucrose and 1 mM EDTA, followed by adjusting the membrane fraction by centrifugation to use the adjusted membrane fraction as an enzyme source.
To the reaction liquid having the following composition: 100 mM Tris pH 7.5, 100 mM MgCl2, 100 mM sucrose, 40 μM Dioelin, 15 μM [^14C]-oleoyl-CoA, 0.25 μg of test substance, DGAT1-expressed yeast membrane fraction, was added, and the mixture having a volume of 100 μl was incubated at room temperature for 30 minutes. To the reaction liquid, 100 μl of 2-propanol/heptan/H2O (80/20/2) was added, the mixture was stirred well, followed by adding 200 of heptane and further stirring the mixture. After centrifugation, the heptane layer was collected, ethanol/0.1N NaOH/H2O (50:5:45) was added, the mixture was thus stirred, followed by recentrifuging the mixture and collecting the heptane layer. After exsiccation of the resultant heptane layer, 100 μl of Microscint 0 (PerkinElmer) was added, and the radioactivity was measured with a liquid scintillation counter. The inhibitory activity was calculated from the following formula:
Inhibition rate=100−(radioactivity in case of addition of test compound−background)/(radioactivity in case of addition of no test compound−background)×100
wherein the background means the radioactivity in case of addition of no membrane fraction.

IC50	Compound
2230 nM	CN1C(=O)[C@H](NC(=O)C(C)(C)NC(=O)c2ncco2)CN(Cc2ccc(OC(F)(F)F)cc2)c2ccc(F)cc21 [Example 100, N-[2-({(3R)-8-fluoro-1-methyl-2-oxo-5-[4-(trifluoromethoxy)benzyl]-2,3,4,5-tetrahydro-1H-1,5-benzodiazepin-3-yl}amino)-1,1-dimethyl-2-oxoethyl]-1,3-oxazol-2-carboxyamide]
29.2 nM	N-(2-{[(3R)-5-(3,5-dichlorophenyl)-8-fluoro-1-methyl-2-oxo-2,3,4,5-tetrahydro-1H-1,5-benzodiazepin-3-yl]amino}-1,1-dimethyl-2-oxoethyl)-1,3-thiazol-2-carboxyamide [Example 45]
1340 nM	Cc1cnc(C(=O)NC(C)(C)C(=O)N[C@@H]2CN(Cc3ccc(OC(F)(F)F)cc3)c3ccc(F)cc3N(C)C2=O)cn1 [Example 98, N-[2-({(3R)-8-fluoro-1-methyl-2-oxo-5-[4-(trifluoromethoxy)benzyl]-2,3,4,5-tetrahydro-1H-1,5-benzodiazepin-3-yl}amino)-1,1-dimethyl-2-oxoethyl]-5-methylpyrazin-2-carboxyamide]
91.1 nM	CN1C(=O)[C@H](NC(=O)C(C)(C)NC(=O)N2CCCCC2)CN(c2ccc(OC(F)(F)F)cc2)c2ccc(F)cc21 [Example 52, N-[2-({(3R)-8-fluoro-1-methyl-2-oxo-5-[4-(trifluoromethoxy)phenyl]-2,3,4,5-tetrahydro-1H-1,5-benzodiazepin-3-yl}amino)-1,1-dimethyl-2-oxoethyl]piperidin-1-carboxyamide]
192 nM	CN1C(=O)[C@H](NC(=O)C2(NC(=O)c3ccccc3)CC2)CN(c2ccc(OC(F)(F)F)cc2)c2ccc(F)cc21 [Example 12, N-{1-[({(3R)-8-fluoro-1-methyl-2-oxo-5-[4-(trifluoromethoxy)phenyl]-2,3,4,5-tetrahydro-1H-1,5-benzodiazepin-3-yl}amino)carbonyl]cyclopropyl}benzamide]
140 nM	CN1C(=O)[C@H](NC(=O)C(C)(C)NC(=O)c2ccc(F)cc2)CN(Cc2ccc(F)c(C(F)(F)F)c2)c2ccc(F)cc21 [Example 84, 4-fluoro-N-[2-({(3R)-8-fluoro-5-[4-fluoro-3-(trifluoromethyl)benzyl]-1-methyl-2-oxo-2,3,4,5-tetrahydro-1H-1,5-benzodiazepin-3-yl}amino)-1,1-dimethyl-2-oxoethyl]benzamide]
40.2 nM	CN1C(=O)[C@H](NC(=O)C(C)(C)NC(=O)c2ccc(F)cc2)CN(c2cc(Cl)cc(Cl)c2)c2cc(F)ccc21 [Example 59, N-(2-{[(3R)-5-(3,5-dichlorophenyl)-7-fluoro-1-methyl-2-oxo-2,3,4,5-tetrahydro-1H-1,5-benzodiazepin-3-yl]amino}-1,1-dimethyl-2-oxoethyl)-4-fluorobenzamide]

Further lines, the compound ahead of its results:

Compound	IC50
CN1C(=O)[C@H](NC(=O)C(C)(C)NC(=O)C2(C(F)(F)F)CC2)CN(c2cc(C(F)(F)F)cc(C(F)(F)F)c2)c2ccc(F)cc21 [Example 27, N-{(3R)-5-[3,5-bis(trifluoromethyl)phenyl]-8-fluoro-1-methyl-2-oxo-2,3,4,5-tetrahydro-1H-1,5-benzodiazepin-3-yl}-2-methyl-N^2-{[1-(trifluoromethyl)cyclopropyl]carbonyl}alaninamide]	16.3 nM
N-[2-({(3R)-5-[3,5-bis(trifluoromethyl)phenyl]-8-fluoro-1-methyl-2-oxo-2,3,4,5-tetrahydro-1H-1,5-benzodiazepin-3-yl}amino)-1,1-dimethyl-2-oxoethyl]-5-fluoropyridine-2-carboxyamide [Example 19]	24.1 nM
CN1C(=O)[C@H](NC(=O)C2(NC(=O)OC(C)(C)C)CC2)CN(Cc2ccc(OC(F)(F)F)cc2)c2ccccc21 [Example 92, tert-butyl {1-[({(3R)-1-methyl-2-oxo-5-[4-(trifluoromethoxy)benzyl]-2,3,4,5-tetrahydro-1H-1,5-benzodiazepin-3-yl}amino)carbonyl]cyclopropyl}carbamate]	20.8 nM
CN1C(=O)[C@H](NC(=O)C(C)(C)NC(=O)NC(C)(C)C)CN(c2cc(Cl)cc(Cl)c2)c2ccc(F)cc21 [Example 47, N^2-[(tert-butylamino)carbonyl]-N-[(3R)-5-(3,5-dichlorophenyl)-8-fluoro-1-methyl-2-oxo-2,3,4,5-tetrahydro-1H-1,5-benzodiazepin-3-yl]-2-methylalanineamide]	61.3 nM
CN1C(=O)[C@H](NC(=O)C(C)(C)NC(=O)c2ccc(F)cc2)CN(c2ccc(OC(F)(F)F)cc2)c2ccc(F)cc21 [Example 1, 4-fluoro-N-[2-({(3R)-8-fluoro-1-methyl-2-oxo-5-[4-(trifluoromethoxy)phenyl]-2,3,4,5-tetrahydro-1H-1,5-benzodiazepin-3-yl}amino)-1,1-dimethyl-2-oxoethyl]benzamide]	166 nM
CN1C(=O)[C@H](NC(=O)C2(NC(=O)c3ccccc3)CC2)CN(Cc2cc(C(F)(F)F)cc(C(F)(F)F)c2)c2ccccc21 [Example 64, N-{1-[({(3R)-5-[3,5-bis(trifluoromethyl)benzyl]-1-methyl-2-oxo-2,3,4,5-tetrahydro-1H-1,5-benzodiazepin-3-yl}amino)carbonyl]cyclopropyl}benzamide]	47.3 nM
